Earlier results as cited in US20040157796A1 (priority 2002, published 2004).

Legend:
COX-1 = COX-1 (Homo sapiens, UniProt P23219); conditions: background statement
[1] = background statement

Chain of COX-1 (P23219 24-599): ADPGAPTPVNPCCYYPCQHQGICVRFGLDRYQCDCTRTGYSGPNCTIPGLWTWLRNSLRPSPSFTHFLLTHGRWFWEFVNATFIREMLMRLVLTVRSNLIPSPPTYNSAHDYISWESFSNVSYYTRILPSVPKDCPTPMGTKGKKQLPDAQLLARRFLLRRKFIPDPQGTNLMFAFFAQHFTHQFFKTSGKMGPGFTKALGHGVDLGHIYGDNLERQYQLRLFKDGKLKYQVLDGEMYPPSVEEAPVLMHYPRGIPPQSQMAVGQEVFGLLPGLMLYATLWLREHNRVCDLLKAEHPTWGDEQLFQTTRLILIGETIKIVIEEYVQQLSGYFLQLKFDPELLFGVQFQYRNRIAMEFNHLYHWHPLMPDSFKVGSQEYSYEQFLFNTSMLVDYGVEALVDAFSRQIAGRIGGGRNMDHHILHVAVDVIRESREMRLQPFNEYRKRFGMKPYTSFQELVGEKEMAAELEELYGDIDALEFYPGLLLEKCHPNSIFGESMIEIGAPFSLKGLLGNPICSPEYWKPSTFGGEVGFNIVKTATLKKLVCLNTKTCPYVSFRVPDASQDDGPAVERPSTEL

Row | Structure (SMILES) | in vitro inhibitory activity against COX-1 (COX-1) | solubility in water [1]
1 | CCC(=O)NS(=O)(=O)c1ccc(-c2c(-c3ccccc3)noc2C)cc1 [Parecoxib, N-[[4-(5-methyl-3-phenylisoxazol-4-yl)phenyl]sulfonyl]propanamide] | weak in vitro inhibitory activity | much more soluble
2 | Cc1onc(-c2ccccc2)c1-c1ccc(S(N)(=O)=O)cc1 [valdecoxib] | weak inhibitor | extremely low solubility
